Measurements from article PMC9821907, “Synthesis and Antiprotozoal Activity of Azabicyclo-Nonane Pyrimidine Hybrids” (Molecules, 2022).
Where two headings read alike, the source gives them in different places.

Columns and labels:
P. falciparum K1 [1] = test system: P. falciparum K1; design: method as in PMID 25746816; settings: K1 strain, resistant to chloroquine, sulfadoxine and pyrimethamine; ref [12]; cited from earlier work
[2] = test system: T. brucei rhodesiense STIB900; design: method as in PMID 25746816; settings: ref [12]; cited from earlier work
L-6 cells [3] = settings: cited from earlier work
P. falciparum NF54 [4] = settings: NF54 strain, sensitive to chloroquine and pyrimethamine, cited from earlier work
P. falciparum NF54 [5] = test: In vitro microplate 3H-hypoxanthine incorporation assay against P. falciparum NF54; type: cell-based; settings: Plasmodium falciparum; NF54 strain, sensitive to chloroquine and pyrimethamine; average of four determinations; read-out: P. falciparum NF54 IC50
Method: (§1) Compounds were tested for their activities against Plasmodium falciparum NF54 (sensitive to chloroquine) and Trypanosoma brucei rhodesiense STIB900, via serial dilution assays. Furthermore, selected compounds were tested against the K1 strain of Plasmodium falciparum (resistant against chloroquine, sulfadoxine and pyrimethamine). Their cytotoxicity was determined with rat skeletal myoblasts (L-6 cells).
(§2) In vitro activity against erythrocytic stages of P. falciparum was determined using a ^3H-hypoxanthine incorporation assay using the drug sensitive NF54 strain [27] or the chloroquine- and pyrimethamine-resistant K1 strain [28]. Compounds were dissolved in DMSO at 10 mg/mL and further diluted in medium before being added to parasite cultures incubated in RPMI 1640 medium without hypoxanthine, supplemented with HEPES (5.94 g/L), NaHCO3 (2.1 g/L), neomycin (100 U/mL), Albumax® (5 g/L) and washed human red cells A+ at 2.5% haematocrit (0.3% parasitaemia). Serial drug dilutions of eleven 3-fold dilution steps covering a range from 100 to 0.002 μg/mL were prepared. The 96-well plates were incubated in a humidified atmosphere at 37 °C; 4% CO2, 3% O2, 93% N2. After 48 h, 0.05 mL of ^3H-hypoxanthine (= 0.5 μCi) was added to each well of the plate. The plates were incubated for a further 24 h under the same conditions. The plates were then harvested with a Betaplate™ cell harvester (Wallac, Zurich, Switzerland), and the red blood cells transferred onto a glass fibre filter then washed with distilled water. The dried filters were inserted into a plastic foil with 10 mL of scintillation fluid, and counted in a Betaplate™ liquid scintillation counter (Wallac, Zurich, Switzerland). IC50 values were calculated from sigmoidal inhibition curves by linear regression using Microsoft Excel. Chloroquine (Sigma C6628) was used as control.

P. falciparum K1 [6] = test: In vitro microplate 3H-hypoxanthine incorporation assay against P. falciparum K1; type: cell-based, Plasmodium falciparum; settings: Plasmodium falciparum, K1, K1 strain, resistant to chloroquine, sulfadoxine and pyrimethamine; average of four determinations; read-out: P. falciparum K1 IC50
Method: as §1, §2

[7] = test system: T. brucei rhodesiense STIB900; test: In vitro microplate resazurin assay against T. brucei rhodesiense; type: cell-based; settings: Trypanosoma brucei; bloodstream forms; average of four determinations; read-out: T. brucei rhodesiense STIB900 IC50
Method: as §1
Minimum essential medium (50 µL) supplemented with 25 mM HEPES, 1g/L additional glucose, 1% MEM non-essential amino acids (100×), 0.2 mM 2-mercaptoethanol, 1mM Na-pyruvate and 15% heat-inactivated horse serum was added to each well of a 96-well microtiter plate. Serial drug dilutions of eleven 3-fold dilution steps covering a range from 100 to 0.002 μg/mL were prepared. Then 4 × 10^3 bloodstream forms of T. b. rhodesiense STIB 900 in 50 µL was added to each well and the plate incubated at 37 °C under a 5 % CO2 atmosphere for 70 h. Next, 10 µL resazurin solution (resazurin, 12.5 mg in 100 mL double-distilled water) was added to each well and incubation continued for a further 2–4 h. Then the plates were read with a Spectramax Gemini XS microplate fluorometer (Molecular Devices Cooperation, Sunnyvale, CA, USA) using an excitation wave length of 536 nm and an emission wave length of 588 nm. Data were analyzed with the graphic programme Softmax Pro (Molecular Devices Cooperation, Sunnyvale, CA, USA), which calculated IC50 values by linear regression and 4-parameter logistic regression from the sigmoidal dose inhibition curves. Melarsoprol (Arsobal Sanofi-Aventis, received from WHO) was used as control.

in vitro = settings: rat
Method: as §1
(§3) Assays were performed in 96-well microtiter plates, each well containing 0.1 mL of RPMI 1640 medium supplemented with 1% L-glutamine (200 mM) and 10% fetal bovine serum, and 4000 L-6 cells (a primary cell line derived from rat skeletal myoblasts, ATCC CRL-1458™). Serial drug dilutions of eleven 3-fold dilution steps covering a range from 100 to 0.002 μg/mL were prepared. After 70 h of incubation the plates were inspected under an inverted microscope to assure growth of the controls and sterile conditions. Then, 0.01 mL resazurin solution (resazurin, 12.5 mg in 100 mL double-distilled water) was added to each well and the plates incubated for another 2 h. The plates were read with a Spectramax Gemini XS microplate fluorometer (Molecular Devices Cooperation, Sunnyvale, CA, USA) using an excitation wave length of 536 nm and an emission wave length of 588 nm. The IC50 values were calculated by linear regression from the sigmoidal dose inhibition curves using SoftmaxPro software (Molecular Devices Cooperation, Sunnyvale, CA, USA). Podophyllotoxin (Sigma P4405) was used as control.

L-6 cells [8] = test: In vitro cytotoxicity with L-6 cells; settings: read-out: Cytotoxicity L-6 Cells IC50; rat skeletal myoblasts; average of four determinations
Method: as §1, §3

| Compound | IC50 (P. falciparum K1 [1]) [µM] | IC50 [2] [µM] | IC50 (L-6 cells [3]) [µM] | IC50 (P. falciparum K1 [6]) [µM] | further results |
| --- | --- | --- | --- | --- | --- |
| 1-(piperidin-1-yl)-3-azabicyclononane [Compound 3] | 0.75 | 2.02 | 122 | – | – |
| 1-(pyrrolidin-1-yl)-3-azabicyclononane [Compound 4] | 0.095 | 1 | – | – | IC50 (P. falciparum NF54 [4]; ref [13]): 0.072 µM; IC50 (L-6 cells [3]; read-out: Cytotoxicity L-6 Cells IC50, rat skeletal myoblasts, ref [12]): 72.9 µM |
| 5-(piperidin-1-yl)-2-azabicyclo-nonane [Compound 1] | 0.64 | 6.57 | 89.7 | – | – |
| 5-(pyrrolidin-1-yl)-2-azabicyclononane [Compound 2] | 0.56 | 1.16 | 120 | – | – |
| Cc1cc(N2CC3C(c4ccccc4)CC(N4CCCC4)(CC3c3ccccc3)C2)nc(N2CCCC2)n1 (racemic) [Compound 20, rac-(7R,8R)-3-[6-methyl-2-(pyrrolidin-1-yl)pyrimidin-4-yl]-6,9-diphenyl-1-(pyrrolidin-1-yl)-3-azabicyclo[3.2.2]nonane] | – | – | – | 0.087 ± 0.047 | IC50 (P. falciparum NF54 [5]): 0.087 ± 0.059 µM; IC50 [7]: 0.764 ± 0.335 µM; IC50 at 72 h (in vitro): 4.16 ± 0.039 µM |
| Cc1cc(N2CC3C(c4ccccc4)CC(N4CCCCC4)(CC3c3ccccc3)C2)nc(N2CCCCC2)n1 (racemic) [Compound 23, rac-(7R,8R)-3-[6-methyl-2-(piperidin-1-yl)pyrimidin-4-yl]-6,9-diphenyl-1-(piperidin-1-yl)-3-azabicyclo[3.2.2]nonane] | – | – | – | 0.57 ± 0.012 | IC50 (P. falciparum NF54 [5]): 0.607 ± 0.01 µM; IC50 [7]: 3.38 ± 0.009 µM; IC50 at 72 h (in vitro): 16 ± 1.24 µM |
| COc1cc([C@@H]2c3cc4c(cc3[C@H](O)[C@H]3COC(=O)[C@H]23)OCO4)cc(OC)c1OC [POD, podophyllotoxin, reference compound] | – | – | – | – | IC50 (L-6 cells [8]): 0.012 µM |
| CCc1nc(N)nc(N)c1-c1ccc(Cl)cc1 [PYR, pyrimethamine, reference compound] | – | – | – | 10 | IC50 (P. falciparum NF54 [4]; ref [24]): 0.017 µM |
